31 compounds from USRE37886E1, “1-(1,2-Disubstituted piperidinyl)-4-substituted piperazine derivatives” (Janssen Pharmaceuticals, N.V., priority 1995, dated 2002) can be followed below.

The subject of experiment [1] is substance-P induced relaxation of the pig coronary arteries. The experiment is described as follows: Antagonism of substance-P induced relaxation of the pig coronary arteries. Type of experiment: cell-based. The note with it: concentration at which 50% of the response to 10^−9 M substance P was inhibited, 30 minutes incubation, prostaglandin F2a precontracted segments. The text has this:
(§1) The compounds of the present invention are potent inhibitors of neurokinin-mediated effects, in particular those mediated via the NK1 receptor, and may therefore be described as tachykinin antagonists, especially as substance P antagonists, as indicated in vitro by the antagonism of substance P induced relaxation of pig coronary arteries which is described hereinafter. The binding affinity of the present compounds for the human, guinea-pig and gerbil neurokinin receptors may be determined in vitro in a receptor binding test using ^3H-substance-P as radioligand. The subject compounds also show substance-P antagonistic activity in vivo as may be evidenced by, for instance, the antagonism of substance P-induced plasma extravasation in guinea-pigs, or the antagonism of drug-induced emesis in ferrets (Watson et al., Br. J. Pharmacol. 115, 84-94, 1995).
Antagonism of substance-P induced relaxation of the pig coronary arteries
Segments of coronary artieries taken from pigs (killed by injection of an overdose of sodium pentobarbital) were inverted and mounted for recordign of isometric tension in organ baths (volume 20 ml) with the endothelium at the outside. The preparations were bathed in Krebs-Henseleit solution. The solution was kept at 37° C. and gassed with a mixture of O2/CO2 (95/5). After stabilisation of the preparations, prostaglandin F2a (10^−5 M) was administered to induce a contraction. This was repeated until contractivle responses became stable. Then prostaglandin F2a was again administered and substance P(3×10^−10 M and 10^−9 M cumulatively) was added. Substance P induced endothelium dependent relaxations. After washing away the agonists, a known concentratin of a compound of formula (I) was added. After an incubation period of 30 minutes, prostaglandin F2a ([…]) and the same concentrations of sbustance P as described above were again administered in the presence of the compound to be tested. Relaxations caused by substance P were expressed as relaxations under control conditions, and percent inhibition of the response to […] substance P was taken as a measure of the antagonistic activity of the compound to be tested. Table 6 lists the IC50 values (concentration at which 50% of the response to […] substance P was inhibited by the test compound) for the tested compounds.

The test system of experiment [2] is substance P induced plasma extravasation. The experiment is described as follows: Antagonism of substance P induced plasma extravasation in guinea-pigs. Type of experiment: in vivo. The conditions noted are these: lowest active dose, female guinea-pigs; for LAD nose: compound 1 hour prior to substance P (2 mg/kg, femoral artery), blue colouring of nose 10 minutes after challenge; for LAD conjunctiva / LAD forepaws / LAD trachea / LAD urinary bladder: compound 1 hour prior to substance P; for LAD conjunctiva: blue colouring of conjunctiva 10 minutes after challenge; for LAD forepaws: blue colouring of forepaws 10 minutes after challenge; for LAD trachea: blue colouring of trachea 30 minutes after challenge; for LAD urinary bladder: blue colouring of urinary bladder 30 minutes after challenge.
Source text: as §1
Antagonism of substance P induced plasma extravasation in guinea-pigs
Plasma extravasation was induced by injection of substance P (2 mg/kg) in the femoral artery of female guinea-pigs. Evans Blue dye (30 mg/kg) was injected simultaneously. The test compound or solvent was administered 1 hour prior to substance P injection. 10 minutes after challenge, the aminals were checked for blue colouring (a direct measure for plasma extravasation) of the nose, the forepaws, and the conjectiva. 30 minutes after challenge, the animals were sacrificed by CO2 gas inhalation and checked for blue colouring of the trachea and the urinary bladder. […]

Compound `O=C(c1cc(C(F)(F)F)cc(C(F)(F)F)c1)N1CCC(N2CCCN(Cc3ccccc3)CC2)CC1Cc1ccccc1` (racemic) [Compound 63] displayed an IC50 in experiment [1] of 8.38 nM. This counts as single-digit nanomolar.

`O=C(c1cc(C(F)(F)F)cc(C(F)(F)F)c1)N1CCC(N2CCN(CC(O)c3ccccc3)CC2)CC1Cc1ccccc1` (racemic) [Compound 86] displayed an IC50 in experiment [1] of 2.13 nM.

In experiment [2], `Cc1cccc(C)c1NC(=O)CN1CCN(C2CCN(C(=O)c3cc(C(F)(F)F)cc(C(F)(F)F)c3)C(Cc3ccccc3)C2)CC1` (centres unmarked) [Compound 53] yielded an LAD nose of 1.25 mg/kg, an LAD conjunctiva of 1.25 mg/kg, an LAD forepaws of 1.25 mg/kg and an LAD trachea of 2.50 mg/kg. The compound also returned an LAD urinary bladder in experiment [2] of 2.50 mg/kg. The compound further displayed an IC50 in experiment [1] of 0.35 nM.

In experiment [2], `Cc1ncc(Cn2c(N3CCN(C4CCN(C(=O)c5cc(C(F)(F)F)cc(C(F)(F)F)c5)C(Cc5ccccc5)C4)CC3)nc3ccccc32)o1` (racemic) [Compound 85] showed an LAD nose of 2.50 mg/kg, an LAD conjunctiva of 2.50 mg/kg, an LAD forepaws of 2.50 mg/kg and an LAD trachea of 2.50 mg/kg. The compound also showed an LAD urinary bladder in experiment [2] of 10.0 mg/kg. Also, the IC50 in experiment [1] was determined as 0.15 nM.

As for `Cc1cc(C)cc(C(=O)NCCN2CCN(C3CCN(C(=O)c4cc(C(F)(F)F)cc(C(F)(F)F)c4)C(Cc4ccccc4)C3)CC2)c1` (racemic) [Compound 115], in experiment [1], the IC50 was determined as 2.23 nM.

The compound `O=C(CN1CCN(C2CCN(C(=O)c3cc(C(F)(F)F)cc(C(F)(F)F)c3)C(Cc3ccccc3)C2)CC1)Nc1ccccc1` (centres unmarked) [Compound 37] had an IC50 in experiment [1] of 9.6 nM.

Take `O=C(c1cc(C(F)(F)F)cc(C(F)(F)F)c1)N1CCC(N2CCN(CC=Cc3ccccc3)CC2)CC1Cc1ccccc1` (centres unmarked) [Compound 29]: the IC50 in experiment [1] was found to be 0.45 nM.

For the compound `CC(C)NC(=O)CN1CCN(C2CCN(C(=O)c3cc(C(F)(F)F)cc(C(F)(F)F)c3)C(Cc3ccccc3)C2)CC1` (racemic) [Compound 76], in experiment [1], the IC50 is 14.1 nM.

In experiment [1], `O=C(c1cc(C(F)(F)F)cc(C(F)(F)F)c1)N1CCC(N2CCN(CCc3ccccc3)CC2)CC1Cc1ccccc1` (centres unmarked) [Compound 44] registered an IC50 of 8.34 nM.

`CN(CC(CCN1CCN([C@H]2CCN(C(=O)c3cc(C(F)(F)F)cc(C(F)(F)F)c3)[C@@H](Cc3ccccc3)C2)CC1)c1ccc(Cl)c(Cl)c1)C(=O)c1ccccc1` (mixture of isomers) [Compound 93, (±)-cis-N-[4-[4-[1-[3,5-bis(trifluoromethyl)benzoyl]-2-(phenylmethyl)-4-piperidinyl]-1-piperazinyl]-2-(3,4-dichlorophenyl)butyl]-N-Methylbenzamide (E)-2-butenedioate (1:2)] returned an IC50 in experiment [1] (Sus scrofa, 0.5 h) of 4.99 nM.

The compound `O=C(c1cc(C(F)(F)F)cc(C(F)(F)F)c1)N1CCC(N2CCN(C(c3ccc(F)cc3)c3ccc(F)cc3)CC2)CC1Cc1ccccc1` (centres unmarked) [Compound 36] had an IC50 in experiment [1] of 2.31 nM.

As for `Cc1cccc(C)c1NC(=O)CN1CCN(C2CCN(C(=O)c3cc(C(F)(F)F)cc(C(F)(F)F)c3)C(Cc3ccccc3)C2)CC1` (racemic) [Compound 58], the IC50 in experiment [1] turned out to be 0.24 nM.

With `O=C(c1cc(C(F)(F)F)cc(C(F)(F)F)c1)N1CCC(N2CCN(CC=Cc3ccccc3)CC2)CC1Cc1ccccc1` (centres unmarked) [Compound 28], the midpoint of inhibition in experiment [1], the IC50, lay at 13.3 nM.

In the case of `Cc1cccc(C)c1NC(=O)C(c1ccccc1)N1CCN(C2CCN(C(=O)c3cc(C(F)(F)F)cc(C(F)(F)F)c3)C(Cc3ccccc3)C2)CC1` (racemic) [Compound 102], it took 1.85 nM to reach half-maximal inhibition in experiment [1] (IC50).

With `Cc1cccc(C)c1NC(=O)CN1CCN(C2CCN(C(=O)c3cc(C(F)(F)F)cc(C(F)(F)F)c3)C(Cc3ccccc3)C2)CC1` (single isomer, unassigned) [Compound 124], the IC50 in experiment [1] came out at 0.06 nM.

Regarding `CN(CC(CCN1CCN(C2CCN(C(=O)c3cc(C(F)(F)F)cc(C(F)(F)F)c3)C(Cc3ccccc3)C2)CC1)c1ccc(Cl)c(Cl)c1)C(=O)c1ccccc1` (racemic) [Compound 92], the IC50 in experiment [1] came to 0.78 nM.

With `COc1ccccc1NC(=O)CN1CCN(C2CCN(C(=O)c3cc(C(F)(F)F)cc(C(F)(F)F)c3)C(Cc3ccccc3)C2)CC1` (centres unmarked) [Compound 51], in experiment [1], half-maximal inhibition (IC50) was put at 1.35 nM.

For `O=C(CN1CCN(C2CCN(C(=O)c3cc(C(F)(F)F)cc(C(F)(F)F)c3)C(Cc3ccccc3)C2)CC1)Nc1nccn1Cc1ccccc1` (racemic) [Compound 97], half-maximal inhibition in experiment [1] (IC50) was put at 1.58 nM.

Regarding `CCOCCn1c(NC(=O)CN2CCN(C3CCN(C(=O)c4cc(C(F)(F)F)cc(C(F)(F)F)c4)C(Cc4ccccc4)C3)CC2)nc2ccccc21` (racemic) [Compound 69], the IC50 in experiment [1] was 1.57 nM.

As to `O=C(CN1CCN(C2CCN(C(=O)c3cc(C(F)(F)F)cc(C(F)(F)F)c3)C(Cc3ccccc3)C2)CC1)N1Cc2ccccc2C1` (racemic) [Compound 121], the IC50 in experiment [1] worked out at 2.77 nM.

Consider `O=C(c1cc(C(F)(F)F)cc(C(F)(F)F)c1)N1CCC(N2CCN(c3cccc(C(F)(F)F)c3)CC2)CC1Cc1ccccc1` (racemic) [Compound 120], for which the IC50 in experiment [1] amounted to 0.82 nM.

On to `O=C(CN1CCN(C2CCN(C(=O)c3cc(C(F)(F)F)cc(C(F)(F)F)c3)C(Cc3ccccc3)C2)CC1)C1CCc2ccccc21` (racemic) [Compound 99], for which the IC50 in experiment [1] stood at 1.46 nM.

In the case of `O=C(CN1CCN(C2CCN(C(=O)c3cc(C(F)(F)F)cc(C(F)(F)F)c3)C(Cc3ccccc3)C2)CC1)N1Cc2ccccc2C1` (racemic) [Compound 122], the IC50 in experiment [1] is 1.68 nM.

In experiment [1], `O=C(c1cc(C(F)(F)F)cc(C(F)(F)F)c1)N1CCC(N2CCN(C(c3ccccc3)c3ccccc3)CC2)CC1Cc1ccccc1` (centres unmarked) [Compound 55] displayed an IC50 of 2.8 nM.

As for `O=C(c1cc(C(F)(F)F)cc(C(F)(F)F)c1)N1CCC(N2CCN(C(c3ccc(F)cc3)c3ccc(F)cc3)CC2)CC1Cc1ccccc1` (centres unmarked) [Compound 35], the 50% inhibitory concentration (IC50) in experiment [1] stood at 17 nM. Compared with the last compound, the IC50 is about 6.1-fold higher.

For the compound `Cc1ncc(Cn2c(N3CCN(C4CCN(C(=O)c5cc(C(F)(F)F)cc(C(F)(F)F)c5)C(Cc5ccccc5)C4)CC3)nc3ccccc32)o1` (centres unmarked) [Compound 23], in experiment [2], the LAD nose turned out to be 10.0 mg/kg, the LAD conjunctiva is reported as 40.0 mg/kg, the LAD forepaws is 10.0 mg/kg and the LAD trachea is more than 40 mg/kg. In experiment [2], this compound yielded an LAD urinary bladder of more than 40 mg/kg.

In the case of `Cc1cccc(C)c1NC(=O)CN1CCCN(C2CCN(C(=O)c3cc(C(F)(F)F)cc(C(F)(F)F)c3)C(Cc3ccccc3)C2)CC1` (racemic) [Compound 65], half-maximal inhibition in experiment [1] (IC50) required 6.39 nM.

In experiment [2], `NC(=O)c1cc(Cl)c(NC(=O)CN2CCN([C@@H]3CCN(C(=O)c4cc(C(F)(F)F)cc(C(F)(F)F)c4)[C@@H](Cc4ccccc4)C3)CC2)c(Cl)c1` (racemic) [Compound 74] returned an LAD nose of 10.0 mg/kg, an LAD conjunctiva of 10.0 mg/kg, an LAD forepaws of 10.0 mg/kg and an LAD trachea of more than 40 mg/kg. The compound also displayed an LAD urinary bladder in experiment [2] of more than 40 mg/kg.

In experiment [2], `Cc1cc(C)cc(C(=O)N2CCC(N3CCN(CC=Cc4ccccc4)CC3)CC2Cc2ccccc2)c1` (centres unmarked) [Compound 8] registered an LAD nose of 10.0 mg/kg, an LAD conjunctiva of 10.0 mg/kg, an LAD forepaws of 10.0 mg/kg and an LAD trachea of more than 40 mg/kg. In experiment [2], the LAD urinary bladder is more than 40 mg/kg.

`Cc1cccc2c1N(C(=O)CN1CCN(C3CCN(C(=O)c4cc(C(F)(F)F)cc(C(F)(F)F)c4)C(Cc4ccccc4)C3)CC1)CC2` (racemic) [Compound 104] registered an IC50 in experiment [1] of 0.3 nM.

Compound `Cc1cc(C)cc(C(=O)N2CCC(N3CCN(CC(=O)Nc4c(C)cccc4C)CC3)CC2Cc2ccccc2)c1` (centres unmarked) [Compound 5] showed an IC50 in experiment [1] of 4.61 nM.
